One data set deals with C. elegans (strain N2). Put plainly: C. elegans contact assay (NGM-agar, 24-well). Format: in vivo. Particulars: Caenorhabditis elegans, 96 h.
Data set [1] deals with root knot nematode (Meloidogyne incognita). As to conditions: in vivo.
For another data set, the system named is Sclerotinia sclerotiorum. In words: microbe, parasite or virus in culture. The format is cell-based. As to conditions: read-out: growth inhibition.
The test system of the next data set is Fusarium graminearum. Put plainly: microbe, parasite or virus in culture. Format: cell-based. Particulars: read-out: growth inhibition.
The next data set concerns Alternaria solani. In words: microbe, parasite or virus in culture. The format is cell-based. As to conditions: read-out: growth inhibition.
In another data set the test system is Botrytis cinerea. Put plainly: microbe, parasite or virus in culture. Format: cell-based. Particulars: read-out: growth inhibition.
The subject of data set [2] is C. elegans. In words: C. elegans liquid (well) assay. The format is in vivo. Particulars: Caenorhabditis elegans, read-out: Well EC50.
The test system of data set [3] is C. elegans. In words: C. elegans agar (plate) assay. The format is in vivo. Particulars: Caenorhabditis elegans, read-out: Plate EC50.
Data set [4] has as its system Meloidogyne incognita J2 larvae. In words: Miniaturized greenhouse assay on cucumber seedlings, root gall rating. The format is in vivo.
A further data set concerns tomato plants. As to conditions: in vivo.
A further data set has as its system several arthropods. As to conditions: in vivo.
The next data set deals with cucumber seedling. In words: Miniaturized greenhouse assay, phytotoxicity rating. Particulars: 200 ppm.

≈ marks a conversion by molar mass, not a printed value. Where “and” joins values, the source holds several entries; their conditions need not be identical. Equal entries are not always repeated. Where two headings read alike, the source gives them in different places. Some results are limits rather than exact numbers.

`O=S(=O)(F)CCNc1ccc(N=Nc2ccccc2)cc1` [Compound 3746, 2-(4-phenylazo-phenylamino)-ethanesulfonyl fluoride]: the EC50 is 2000 nM with C. elegans (strain N2), 6.3 to 12.5 µg/mL (≈ 20.5 to 40.7 µM) in the data set on C. elegans [2] and 1.6 µg/mL (≈ 5.21 µM) with C. elegans [3]. Further, the “nematode control (gall ratings)” value in data set [1] is recorded as “nematode control approaching that of the commercial nematicides fenamiphos (Nemacur)”. Further, the inhibition at 16.3 µM was below 25% in the data set on Sclerotinia sclerotiorum (16.3 μM), above 75% with Fusarium graminearum (16.3 μM), above 75% with Alternaria solani (16.3 μM) and above 75% in the data set on Botrytis cinerea (16.3 μM). Besides, the inhibition at 163 µM in the data set on Sclerotinia sclerotiorum (163 μM) was above 75%. Also, the inhibition at 1.63 µM with Fusarium graminearum (1.63 μM), with Alternaria solani (1.63 μM) and with Botrytis cinerea (1.63 μM) was below 25% throughout. Also, in data set [4] (40 ppm), the “Gall 40 (gall rating)” value was 1.33 and 2.00. The “Gall 200 (gall rating)” value in data set [4] (200 ppm) is given as 0.00. The “phytotoxicity (root weights)” value in the data set with tomato plants is on record as “no phytoxicity”. Moreover, the “Result (arthropod toxicity)” value in the data set with Beet army worm (2500 μM) is reported as “No effect”; in the data set on Beet army worm (25000 μM), “Lethal”; in the data set with Corn ear worm (2500 μM) it was “Non-effect”; in the data set with Corn ear worm (25000 μM) it was “Lethal”. Moreover, the toxicity to arthropods entry in the data set on several arthropods is listed as “not toxic”. Besides, the “toxicity to fungal species” value in the data set on various fungal species is given as “Low to moderate toxicity”. For the same compound, the “Ptox 200 (phytotoxicity rating)” value with cucumber seedling is 3.00 and 2.67.

Usually EC50 stands for the concentration at which the effect is half-maximal. By inhibition is commonly meant the percentage by which the read-out fell short of the control.

For the origin of these results see patent publication US20050203067A1, “Pesticidal compositions and methods” (priority 2003, published 2005).
